What is called inhibition is the share of the control response that was lost under treatment. By pIC50 is commonly meant the negative decadic logarithm of the IC50, by convention in mol/L.

pIC50: −log10 of the molar value. Read-outs that look alike come from different tables or passages of the source.

What all share (format): biochemical
Test [1] addresses T1, C-src kinase (Homo sapiens, UniProt P12931).
T1 construct: made in house; host or cells: baculovirus infected insect cells
Kind of test: C-src kinase assay (poly GluTyr substrate). The settings on record: for inhibition at 50 µM: read-out: C-src TK % Inhibition at 50 µM; for pIC50: read-out: C-src TK IC50. Here is the method: V-src or C-src kinase is purified from baculovirus infected insect cell lysates using an antipeptide monoclonal antibody directed against the N-terminal 2-17 amino acids. The antibody, covalently linked to 0.65-µm latex beads, is added to a suspension of insect cell lysis buffer comprised of 150 mM NaCl, 50 mM Tris pH 7.5, 1 mM DTT, 1% NP-40, 2 mM EGTA, 1 mM sodium vanadate, 1 mM PMSF, 1 µg/mL each of leupeptin, pepstatin, and aprotinin. […] At the end of the lysate incubation, the beads are rinsed 3 times in lysis buffer, resuspended in lysis buffer containing 10% glycerol, and frozen. These latex beads are thawed, rinsed 3 times in assay buffer which is comprised of 40 mM tris pH 7.5, 5 mM MgCl2, and suspended in the same buffer. In a Millipore 96-well plate with a 0.65 µm polyvinylidine membrane bottom are added the reaction components: 10-µL V-src or C-src beads, 10 µL of 2.5 mg/mL poly GluTyr substrate, 5 µM ATP containing 0.2 µCi labeled ^32P-ATP, 5µL DMSO containing inhibitors or as a solvent control, and buffer to make the final volume 125 µL. The reaction is started at room temperature by addition of the ATP and quenched 10 minutes later by the addition of 125 µL of 30% TCA, 0.1 M sodium pyrophosphate for 5 minutes on ice. […] The filters are punched, counted in a liquid scintillation counter, and the data examined for inhibitory activity in comparison to a known inhibitor such as erbstatin.

Test [2] addresses T2, mouse PDGF-β receptor tyrosine kinase (Mus musculus, UniProt P05622).
T2 construct: amplify a fragment of DNA that codes for the intracellular tyrosine kinase domain; made in house; host or cells: SF9 insect cells (baculovirus)
As to the kind of experiment: PDGF receptor tyrosine kinase assay (32P incorporation into glutamate-tyrosine co-polymer). The settings on record: for pIC50: read-out: PDGFr-TK IC50; for inhibition at 50 µM: read-out: PDGFr-TK % Inhibition at 50 µM. The text has this: (§1) Full length cDNAs for the mouse PDGF-β and human FGF-1 (flg) receptor tyrosine kinases were obtained from J. Escobedo and prepared as described in J. Biol. Chem., 262:1482-1487 […], and PCR primers were designed to amplify a fragment of DNA that codes for the intracellular tyrosine kinase domain. The fragment was melded into a baculovirus vector, cotransfected with AcMNPV DNA, and the recombinant virus isolated. SF9 insect cells were infected with the virus to overexpress the protein, and the cell lysate was used for the assay. The assay was performed in 96-well plates (100 µL/incubation/well), and conditions were optimized to measure the incorporation of ^32P from γ^32P-ATP into a glutamate-tyrosine co-polymer substrate. Briefly, to each well was added 82.5 µL of incubation buffer containing 25 mM Hepes (pH 7.0), 150 mM NaCl, 0.1% Triton X-100, 0.2 mM PMSF, 0.2 mM Na3VO4, 10 mM MnCl2, and 750 µg/mL of Poly (4:1) glutamate-tyrosine followed by 2.5 µL of inhibitor and 5µL of enzyme lysate (7.5 µg/µL FGF-TK or 6.0 µg/µL PDGF-TK) to initiate the reaction. Following a 10 minute incubation at 25°C, 10 µL of γ^32P-ATP (0.4 µCi plus 50 µM ATP) was added to each well and samples were incubated for an additional 10 minutes at 25°C. The reaction was terminated by the addition of 100 µL of 30% trichloroacetic acid (TCA) containing 20 mM sodium pyrophosphate and precipitation of material onto glass fiber filter mats (Wallac). […] Nonspecific activity was defined as radioactivity retained on the filters following incubation of samples with buffer alone (no enzyme). Specific enzymatic activity was defined as total activity (enzyme plus buffer) minus nonspecific activity.

In test [3] the target is T3, Human EGF receptor tyrosine kinase (Homo sapiens, UniProt P00533).
T3 construct: Human EGF receptor tyrosine kinase was isolated from A431 epidermoid carcinoma cells; endogenous in cells; host or cells: A431 epidermoid carcinoma cells
Kind of test: EGF receptor tyrosine kinase enzyme assay (substrate peptide phosphorylation). The settings on record: for pIC50: read-out: EGF-FL IC50; for inhibition at 50 µM: read-out: EGF-FL % Inhibition at 50 µM. How it is done: Human EGF receptor tyrosine kinase was isolated from A431 epidermoid carcinoma cells by the following methods. Cells were grown in roller bottles in 50% Dulbecco's Modified Eagle medium and 50% HAM F-12 nutrient media (Gibco) containing 10% fetal calf serum. Approximately 10^9 cells were lysed in two volumes of buffer containing 20 mM 2-(4N-[2-hydroxymethyl]-piperazin-1-yl)ethanesulfonic acid, pH 7.4, 5 mM ethylene glycol bis(2-aminoethyl ether) N,N,N',N'-tetraacetic acid, 1% Triton X-100, 10% glycerol, 0.1 mM sodium orthovanadate, 5 mM sodium fluoride, 4 mM pyrophosphate, 4 mM benzamide, 1 mM dithiothreitol, 80 µg/mL aprotinin, 40 µg/mL leupeptin, and 1 mM phenylmethylsulfonyl fluoride. […] Contaminating proteins were washed from the resin with 1 M NaCl in equilibration buffer, and the enzyme was eluted with 0.5 M N-acetyl-1-D-glucosamine in equilibration buffer.
The reaction was terminated by the addition of 2 mL of 75 mM phosphoric acid and passed through a 2.5-cm phosphocellulose filter disc to bind the peptide. The filter was washed 5 times with 75 mM phosphoric acid and placed in a vial along with 5 mL of scintillation fluid (Ready gel Heckman).

In test [4] the target is T4, human FGF-1 (flg) receptor tyrosine kinase (Homo sapiens, UniProt P11362).
T4 construct: amplify a fragment of DNA that codes for the intracellular tyrosine kinase domain; made in house; host or cells: SF9 insect cells (baculovirus)
As to the kind of experiment: FGF receptor tyrosine kinase assay (32P incorporation into glutamate-tyrosine co-polymer). The settings on record: for inhibition at 50 µM: read-out: FGFr-TK % Inhibition at 50 µM.
Source text: as §1

T2 sequence (P05622 599-961 limits assumed): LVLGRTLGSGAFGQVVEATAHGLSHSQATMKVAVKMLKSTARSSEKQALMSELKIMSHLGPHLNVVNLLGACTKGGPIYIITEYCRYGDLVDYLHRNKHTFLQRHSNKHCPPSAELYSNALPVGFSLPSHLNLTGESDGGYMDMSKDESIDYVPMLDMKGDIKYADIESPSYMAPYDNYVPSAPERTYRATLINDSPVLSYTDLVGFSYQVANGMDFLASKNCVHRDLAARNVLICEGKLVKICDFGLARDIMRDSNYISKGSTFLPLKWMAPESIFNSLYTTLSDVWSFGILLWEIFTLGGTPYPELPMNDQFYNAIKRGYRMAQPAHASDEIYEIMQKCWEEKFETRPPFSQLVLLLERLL
T4 sequence (P11362 478-767 limits assumed): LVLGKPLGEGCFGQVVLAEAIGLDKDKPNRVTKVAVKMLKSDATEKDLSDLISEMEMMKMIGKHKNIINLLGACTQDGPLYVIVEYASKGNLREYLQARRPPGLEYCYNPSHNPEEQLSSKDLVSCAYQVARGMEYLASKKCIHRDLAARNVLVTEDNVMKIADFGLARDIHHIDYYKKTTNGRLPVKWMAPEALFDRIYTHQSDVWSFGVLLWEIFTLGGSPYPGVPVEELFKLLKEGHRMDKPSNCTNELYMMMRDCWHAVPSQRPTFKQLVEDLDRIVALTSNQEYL
T1 sequence (P12931 whole entry): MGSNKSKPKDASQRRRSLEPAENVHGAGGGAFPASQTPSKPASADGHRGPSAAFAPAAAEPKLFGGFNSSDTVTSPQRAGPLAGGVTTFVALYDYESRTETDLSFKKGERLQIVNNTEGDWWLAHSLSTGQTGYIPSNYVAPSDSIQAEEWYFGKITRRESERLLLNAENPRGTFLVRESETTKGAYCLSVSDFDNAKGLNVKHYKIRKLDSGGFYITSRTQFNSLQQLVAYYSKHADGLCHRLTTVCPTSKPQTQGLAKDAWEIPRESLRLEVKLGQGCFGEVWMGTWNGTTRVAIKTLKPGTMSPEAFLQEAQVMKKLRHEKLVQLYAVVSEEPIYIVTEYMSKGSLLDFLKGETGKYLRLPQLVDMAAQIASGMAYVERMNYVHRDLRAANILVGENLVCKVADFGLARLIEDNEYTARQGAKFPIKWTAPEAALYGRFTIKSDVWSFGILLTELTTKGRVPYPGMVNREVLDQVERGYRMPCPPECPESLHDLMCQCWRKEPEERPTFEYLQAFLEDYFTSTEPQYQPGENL
T3 sequence (P00533 25-1210): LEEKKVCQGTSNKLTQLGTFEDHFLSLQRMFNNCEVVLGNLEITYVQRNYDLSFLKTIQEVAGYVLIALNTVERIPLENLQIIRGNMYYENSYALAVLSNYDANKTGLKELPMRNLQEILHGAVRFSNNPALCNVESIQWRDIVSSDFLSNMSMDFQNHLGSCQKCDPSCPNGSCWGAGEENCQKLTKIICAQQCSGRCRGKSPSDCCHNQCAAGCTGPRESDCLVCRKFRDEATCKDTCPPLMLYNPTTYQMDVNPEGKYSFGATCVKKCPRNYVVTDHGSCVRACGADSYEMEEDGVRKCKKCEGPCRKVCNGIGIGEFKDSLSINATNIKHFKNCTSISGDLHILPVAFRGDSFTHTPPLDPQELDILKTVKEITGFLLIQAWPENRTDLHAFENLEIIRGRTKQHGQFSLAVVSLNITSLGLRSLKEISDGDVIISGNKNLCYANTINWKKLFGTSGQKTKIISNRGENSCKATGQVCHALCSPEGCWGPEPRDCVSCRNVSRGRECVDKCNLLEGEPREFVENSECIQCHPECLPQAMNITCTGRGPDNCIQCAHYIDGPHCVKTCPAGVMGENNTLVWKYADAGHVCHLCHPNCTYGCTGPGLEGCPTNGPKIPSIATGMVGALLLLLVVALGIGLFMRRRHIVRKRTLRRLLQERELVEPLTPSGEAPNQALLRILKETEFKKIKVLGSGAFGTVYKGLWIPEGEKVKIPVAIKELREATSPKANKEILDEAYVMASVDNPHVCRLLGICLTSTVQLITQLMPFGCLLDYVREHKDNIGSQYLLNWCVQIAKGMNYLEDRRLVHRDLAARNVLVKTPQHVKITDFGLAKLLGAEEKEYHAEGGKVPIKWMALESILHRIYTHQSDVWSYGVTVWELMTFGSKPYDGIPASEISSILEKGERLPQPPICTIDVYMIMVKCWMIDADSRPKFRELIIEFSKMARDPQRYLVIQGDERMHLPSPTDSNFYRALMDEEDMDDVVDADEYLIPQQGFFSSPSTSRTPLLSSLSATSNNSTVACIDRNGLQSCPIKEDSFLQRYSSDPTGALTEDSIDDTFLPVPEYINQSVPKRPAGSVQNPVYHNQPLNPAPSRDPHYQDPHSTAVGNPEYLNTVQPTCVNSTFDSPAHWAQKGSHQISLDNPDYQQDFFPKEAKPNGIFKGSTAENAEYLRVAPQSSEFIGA

For `CCn1c(=O)c(-c2c(Cl)cccc2Cl)cc2cnc(Nc3cc(OC)c(OC)c(OC)c3)nc21` [Example 78, 6-(2,6-Dichlorophenyl)-8-ethyl-2-(3,4,5-trimethoxyphenylamino)-8H-pyrido[2,3-d]pyrimidin-7-one], the inhibition at 50 µM in test [1] turned out to be 46%. The negative-log IC50 (pIC50) is 5.77 in test [2], 7.01 in test [3] and 6.84 in test [4] (read-out: FGFr-TK IC50).

As for `Cn1c(=O)c(-c2c(Cl)cccc2Cl)cc2cnc([S+](C)[O-])nc21` (stereo not shown) [Example 53, 6-(2,6-Dichlorophenyl)-2-methanesulfinyl-8-methyl-8H-pyrido[2,3-d]pyrimidin-7-one], the inhibition at 50 µM in test [1] was 15%; in test [2], 20%; in test [4], 45%. Further, in test [3], the pIC50 was 6.07.

For the molecule `CC(C)Nc1ncc2cc(-c3c(Cl)cccc3Cl)c(=O)n(C)c2n1` [Example 44, 6-(2,6-Dichlorophenyl)-2-isopropylamino-8-methyl-8H-pyrido[2,3-d]pyrimidin-7-one], the pIC50 in test [1] was 5.80; in test [2], 5.68; in test [4] (read-out: FGFr-TK IC50), 6.06. For the same molecule, the inhibition at 50 µM in test [3] was found to be 64%.

Consider `Cn1c(=O)c(-c2c(Cl)cccc2Cl)cc2cnc(NCCc3ccccn3)nc21` [Example 51, 6-(2,6-Dichlorophenyl)-8-methyl-2-(2-pyridin-2-yl-ethylamino)-8H-pyrido[2,3-d]pyrimidin-7-one], for which the figures for the pIC50 in test [1], in test [2] and in test [4] (read-out: FGFr-TK IC50) were 5.80, 5.15 and 5.10, respectively. Moreover, the inhibition at 50 µM in test [3] is 55%.

Take `Nc1ncc2cc(-c3c(Cl)cccc3Cl)c(=O)n(CCCc3ccccc3)c2n1` [Example 114, 2-Amino-6-(2,6-dichlorophenyl)-8-(3-phenylpropyl)-8H-pyrido[2,3-d]pyrimidin-7-one]: the negative-log IC50 (pIC50) in test [1] was 5.96; in test [2] it was 5.29; in test [3] it was 5.49; in test [4] (read-out: FGFr-TK IC50), 5.48.

In the case of `Cc1cccc(C)c1-c1cc2cnc(N)nc2n(C)c1=O` [Example 13, 2-Amino-6-(2,6-dimethylphenyl)-8-methyl-pyrido[2,3-d]-pyrimidin-7(8H)-one], the negative-log IC50 (pIC50) in test [1] was 6.54; in test [2] it was 5.59; in test [4] (read-out: FGFr-TK IC50) it was 5.21. In test [3], the inhibition at 50 µM is 88%.

`CSc1ncc2cc(-c3c(Cl)cccc3Cl)c(=O)n(C)c2n1` [Example 37, 6-(2,6-Dichlorophenyl)-8-methyl-2-methylsulfanyl-8H pyrido[2,3-d]pyrimidin-7-one]: the inhibition at 50 µM in test [1] was determined as 33%; in test [2], 33%; in test [3], 42%; in test [4], 29%.

`Nc1ncc2cc(-c3c(Cl)cccc3Cl)c(=O)n(Cc3c(Cl)cccc3Cl)c2n1` [Example 111, 2-Amino-8-(2,6-dichlorobenzyl)-6-(2,6-dichlorophenyl)-8H-pyrido[2,3-d]pyrimidin-7-one]: the negative-log IC50 (pIC50) was 7.39 in test [1], 5.50 in test [2], 5.85 in test [3] and 5.82 in test [4] (read-out: FGFr-TK IC50).

Turning to `CCOc1ccc(Nc2ncc3cc(-c4c(Cl)cccc4Cl)c(=O)n(CC)c3n2)cc1` [Example 76, 6-(2,6-Dichlorophenyl)-2-(4-ethoxyphenylamino)-8-ethyl-8H-pyrido[2,3-d]pyrimidin-7-one], in test [1], the inhibition at 50 µM was determined as 33%. The values for the negative logarithm of the IC50 (pIC50) in test [2], in test [3] and in test [4] (read-out: FGFr-TK IC50) were 5.62, 6.52 and 6.33, respectively.

For `COc1ccc(CCNc2ncc3cc(-c4c(Cl)cccc4Cl)c(=O)n(C)c3n2)cc1OC` [Example 48, 6-(2,6-Dichlorophenyl)-2-[2-(3,4-dimethoxyphenyl)-ethylamino]-8-methyl-8H-pyrido[2,3-d]pyrimidin-7-one], the pIC50 was 5.60 in test [1], 4.75 in test [2] and 4.71 in test [4] (read-out: FGFr-TK IC50). Also, the inhibition at 50 µM in test [3] is 64%.

With `Nc1ncc2cc(-c3c(Cl)cccc3Cl)c(=O)n(Cc3ccccc3)c2n1` [Example 108, 2-Amino-8-benzyl-6-(2,6-dichlorophenyl)-8H-pyrido[2,3-d]pyrimidin-7-one], the negative-log IC50 (pIC50) in test [1] is 6.80; in test [2], 5.30; in test [4] (read-out: FGFr-TK IC50), 5.92. The inhibition at 50 µM in test [3] came to 87%.

For `CCCCNc1ncc2cc(-c3c(Cl)cccc3Cl)c(=O)n(C)c2n1` [Example 45, 2-Butylamino-6-(2,6-dichlorophenyl)-8-methyl-8H-pyrido[2,3-d]pyrimidin-7-one], the pIC50 in test [1] is 5.62; in test [2], 5.25; in test [4] (read-out: FGFr-TK IC50) it was 5.39. The inhibition at 50 µM in test [3] is 85%.

As for `CCNc1ncc2cc(-c3c(Cl)cccc3Cl)c(=O)n(C)c2n1` [Example 42, 6-(2,6-Dichlorophenyl)-2-ethylamino-8-methyl-8H-pyrido[2,3-d]dlpyrimidin-7-one], the pIC50 is 6.23 in test [1], 5.35 in test [2] and 6.10 in test [4] (read-out: FGFr-TK IC50). Also, the inhibition at 50 µM in test [3] stood at 82%.

With `Cn1c(=O)c(-c2c(Cl)cccc2Cl)cc2cnc(Nc3ccc(CC(=O)O)cc3)nc21` [Example 86, {4-[6-(2,6-Dichlorophenyl)-8-methyl-7-oxo-7,8-dihydro-pyrido[2,3-d]pyrimidin-2-ylamino]phenyl}-acetic acid], the pIC50 in test [1] was 8.05; in test [2], 7.15; in test [3] it was 6.89; in test [4] (read-out: FGFr-TK IC50), 7.21.

Turning to `COc1ccc(Nc2ncc3cc(-c4c(Cl)cccc4Cl)c(=O)n(C)c3n2)cn1` [Example 85, 6-(2,6-Dichlorophenyl)-2-(6-methoxypyridin-3-ylamino)-8-methyl-8H-pyrido[2,3-d]pyrimidin-7-one], the pIC50 in test [1] is 7.89; in test [2] it was 6.43; in test [3] it was 5.88; in test [4] (read-out: FGFr-TK IC50) it was 6.25.

Consider `CC(C)Cn1c(=O)c(-c2c(Cl)cccc2Cl)cc2cnc(N)nc21` [Example 33, 2-Amino-6-(2,6-dichlorophenyl)-8-isobutyl-8H-pyrido[2,3-d]pyrimidin-7-one], for which the values for the negative-log IC50 (pIC50) in test [1], in test [2] and in test [4] (read-out: FGFr-TK IC50) were 6.05, 5.74 and 6.37, respectively. For the same molecule, the inhibition at 50 µM in test [3] was 95%.

As for `Cn1c(=O)c(-c2c(Cl)cccc2Cl)cc2cnc(Nc3cccnc3)nc21` [Example 79, 6-(2,6-Dichlorophenyl)-8-methyl-2-(pyridin-3-ylamino)-8H-pyrido[2,3-d]pyrimidin-7-one], the negative logarithm of the IC50 (pIC50) is 7.36 in test [1], 6.96 in test [3] and 6.76 in test [4].

These data come from patent EP0823908B1, “PYRIDO[2,3-d]PYRIMIDINES FOR INHIBITING PROTEIN TYROSINE KINASE MEDIATED [sequence] PROLIFERATION” (Warner-Lambert Company LLC, priority 1995, dated 1996).
